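Cultured in 96-well plates, cells were exposed to test compound for 48 hours across five concentrations. GI50 is the concentration that inhibits growth by half. TGI marks complete inhibition of growth.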
Experiments:
Assay in all cases: NCI anticancer screen, dose series, 48 h
786-0 renal = test system: 786-0 renal
A498 renal = test system: A498 renal
HL-60(TB) leukemia = test system: HL-60(TB) leukemia
IGROV1 ovarian = test system: IGROV1 ovarian
K-562 leukemia = test system: K-562 leukemia
MOLT-4 leukemia = test system: MOLT-4 leukemia
SF-268 CNS = test system: SF-268 CNS
SK-OV-3 ovarian = test system: SK-OV-3 ovarian
SW-620 colon = test system: SW-620 colon
SR leukemia = test system: SR leukemia

Compound: Cn1cc(-c2csc(-c3c[nH]c4ncccc34)n2)c2cc(Br)cnc21
- GI50 (786-0 renal): 9.65 µM
- TGI (786-0 renal): > 100 µM
- GI50 (A498 renal): 10.9 µM
- TGI (A498 renal): > 100 µM
- GI50 (HL-60(TB) leukemia): > 100 µM
- TGI (HL-60(TB) leukemia): > 100 µM
- GI50 (IGROV1 ovarian): 2.21 µM
- TGI (IGROV1 ovarian): > 100 µM
- GI50 (K-562 leukemia): 8.76 µM
- TGI (K-562 leukemia): > 100 µM
- GI50 (MOLT-4 leukemia): > 100 µM
- TGI (MOLT-4 leukemia): > 100 µM
- GI50 (SF-268 CNS): 6.01 µM
- TGI (SF-268 CNS): > 100 µM
- GI50 (SK-OV-3 ovarian): 3.25 µM
- TGI (SK-OV-3 ovarian): > 100 µM
- GI50 (SW-620 colon): 4.46 µM
- TGI (SW-620 colon): > 100 µM

Compound: COc1ccc(/C=C/c2cc(OC)c(O[Si](C)(C)C(C)(C)C)c(OC)c2)cc1
- TGI (786-0 renal): > 100 µM
- TGI (A498 renal): > 100 µM
- TGI (IGROV1 ovarian): > 100 µM
- TGI (K-562 leukemia): > 100 µM
- TGI (MOLT-4 leukemia): > 100 µM
- TGI (SF-268 CNS): > 100 µM
- TGI (SK-OV-3 ovarian): > 100 µM
- TGI (SW-620 colon): > 100 µM

Compound: C/C(=N\NC(=O)CC(=O)Nc1ccc(C)cc1)c1cc2ccccc2oc1=O
- TGI (786-0 renal): > 100 µM
- TGI (HL-60(TB) leukemia): > 100 µM
- TGI (IGROV1 ovarian): > 100 µM
- TGI (K-562 leukemia): > 100 µM
- TGI (MOLT-4 leukemia): > 100 µM
- TGI (SK-OV-3 ovarian): > 100 µM
- TGI (SW-620 colon): > 100 µM

Compound: C=C1CC[C@@H]2C(C)(C)[C@@H](O)CC[C@@]2(C)[C@@H]1COc1ccc2ccc(=O)oc2c1
- GI50 (786-0 renal): 14.8 µM
- TGI (786-0 renal): 30.6 µM
- TGI (HL-60(TB) leukemia): 45.6 µM
- GI50 (IGROV1 ovarian): 15.1 µM
- TGI (IGROV1 ovarian): 31.9 µM
- GI50 (K-562 leukemia): 6.43 µM
- TGI (K-562 leukemia): > 100 µM
- GI50 (MOLT-4 leukemia): 7.22 µM
- TGI (MOLT-4 leukemia): 35.6 µM
- GI50 (SF-268 CNS): 12.2 µM
- TGI (SF-268 CNS): 33.1 µM
- GI50 (SR leukemia): 19.4 µM
- TGI (SR leukemia): 83.9 µM
- GI50 (SW-620 colon): 18.8 µM
- TGI (SW-620 colon): 44 µM

Compound: O=C(Oc1cccnc1)c1ccccc1Nc1ccnc(C(F)(F)F)c1
- GI50 (786-0 renal): 0.158 µM
- TGI (786-0 renal): 4.64 µM
- GI50 (A498 renal): 2.48 µM
- TGI (A498 renal): 13.1 µM
- GI50 (HL-60(TB) leukemia): 43.3 µM
- TGI (HL-60(TB) leukemia): > 100 µM
- GI50 (IGROV1 ovarian): 21.7 µM
- TGI (IGROV1 ovarian): > 100 µM
- GI50 (K-562 leukemia): 0.0426 µM
- TGI (K-562 leukemia): > 100 µM
- GI50 (MOLT-4 leukemia): 0.0499 µM
- TGI (MOLT-4 leukemia): > 100 µM
- GI50 (SF-268 CNS): 0.333 µM
- TGI (SF-268 CNS): 14.4 µM
- GI50 (SK-OV-3 ovarian): 0.25 µM
- TGI (SK-OV-3 ovarian): > 100 µM
- GI50 (SW-620 colon): 0.0498 µM
- TGI (SW-620 colon): > 100 µM

Compound: CCCCCCCCCCCCCCCCOC(=O)C(C(=O)OCCCCCCCCCCCCCCCC)[N+](C)(C)CCOC(C)=O
- TGI (786-0 renal): 32.7 µM
- TGI (A498 renal): 57.5 µM
- TGI (HL-60(TB) leukemia): 6.12 µM
- TGI (IGROV1 ovarian): 13.7 µM
- TGI (K-562 leukemia): 41 µM
- TGI (SF-268 CNS): 44.1 µM
- TGI (SK-OV-3 ovarian): 34.8 µM
- TGI (SW-620 colon): 52.4 µM

Compound: Cc1ccc(-n2c3c(c4c(CN5CCCCC5)c(O)ccc42)CCc2ccccc2C3=O)cc1
- GI50 (786-0 renal): 33.5 µM
- TGI (786-0 renal): > 100 µM
- GI50 (A498 renal): > 100 µM
- TGI (A498 renal): > 100 µM
- GI50 (HL-60(TB) leukemia): 0.477 µM
- TGI (HL-60(TB) leukemia): > 100 µM
- GI50 (IGROV1 ovarian): 39.9 µM
- TGI (IGROV1 ovarian): > 100 µM
- GI50 (K-562 leukemia): 32.2 µM
- TGI (K-562 leukemia): > 100 µM
- GI50 (MOLT-4 leukemia): > 100 µM
- TGI (MOLT-4 leukemia): > 100 µM
- GI50 (SF-268 CNS): > 100 µM
- TGI (SF-268 CNS): > 100 µM
- GI50 (SK-OV-3 ovarian): > 100 µM
- TGI (SK-OV-3 ovarian): > 100 µM
- GI50 (SW-620 colon): > 100 µM
- TGI (SW-620 colon): > 100 µM

Compound: N=C(N)n1ncc(Cl)c(Cl)c1=O
- TGI (786-0 renal): 7.02 µM
- TGI (A498 renal): 35.1 µM
- TGI (IGROV1 ovarian): 28.7 µM
- TGI (K-562 leukemia): 6.36 µM
- TGI (MOLT-4 leukemia): 4.64 µM
- TGI (SF-268 CNS): 9.34 µM
- TGI (SK-OV-3 ovarian): 32 µM
- TGI (SW-620 colon): 3.75 µM

Compound: CC1=C(C(=O)Nc2cccc(C(F)(F)F)c2)C(c2ccc(O)cc2)C(C(=O)Nc2cccc(C(F)(F)F)c2)=C(C)N1
- TGI (786-0 renal): 35.8 µM
- TGI (A498 renal): 71.9 µM
- TGI (HL-60(TB) leukemia): 38.7 µM
- TGI (IGROV1 ovarian): 89.2 µM
- TGI (K-562 leukemia): 44.7 µM
- TGI (MOLT-4 leukemia): 47 µM
- TGI (SF-268 CNS): > 100 µM
- TGI (SK-OV-3 ovarian): 83.4 µM
- TGI (SW-620 colon): 44 µM

Compound: Cc1ccc2nc3c(Cl)cc(=O)cc-3sc2c1
- TGI (786-0 renal): 35.7 µM
- TGI (HL-60(TB) leukemia): 20.5 µM
- TGI (IGROV1 ovarian): 38.1 µM
- TGI (K-562 leukemia): 56.1 µM
- TGI (MOLT-4 leukemia): 41.5 µM
- TGI (SF-268 CNS): 68.1 µM
- TGI (SW-620 colon): 43.5 µM

Compound: O=C(Nc1cccc(Cl)c1)Nc1cccc(Cl)c1
- GI50 (786-0 renal): 36.7 µM
- TGI (786-0 renal): > 100 µM
- GI50 (A498 renal): 2.87 µM
- TGI (A498 renal): > 100 µM
- GI50 (HL-60(TB) leukemia): 5.02 µM
- TGI (HL-60(TB) leukemia): > 100 µM
- GI50 (IGROV1 ovarian): 37.8 µM
- TGI (IGROV1 ovarian): > 100 µM
- GI50 (K-562 leukemia): 3.23 µM
- TGI (K-562 leukemia): > 100 µM
- GI50 (MOLT-4 leukemia): 23.8 µM
- TGI (MOLT-4 leukemia): > 100 µM
- GI50 (SF-268 CNS): > 81.6 µM
- TGI (SF-268 CNS): > 100 µM
- GI50 (SK-OV-3 ovarian): > 100 µM
- TGI (SK-OV-3 ovarian): > 100 µM

Compound: COc1ccc(Nc2c3ccccc3nc3c2c2ccccc2n3C)cc1
- GI50 (786-0 renal): 40.6 µM
- TGI (786-0 renal): > 100 µM
- GI50 (HL-60(TB) leukemia): 3.99 µM
- TGI (HL-60(TB) leukemia): 45.6 µM
- GI50 (IGROV1 ovarian): 15.3 µM
- TGI (IGROV1 ovarian): > 100 µM
- GI50 (K-562 leukemia): 5.57 µM
- TGI (K-562 leukemia): > 100 µM
- GI50 (MOLT-4 leukemia): 1.88 µM
- TGI (MOLT-4 leukemia): 5.36 µM
- GI50 (SF-268 CNS): 28 µM
- TGI (SF-268 CNS): > 100 µM
- GI50 (SR leukemia): 2.75 µM
- TGI (SR leukemia): 14 µM
- GI50 (SW-620 colon): 41.7 µM
- TGI (SW-620 colon): > 100 µM

Compound: COc1ccc(/C=C/C(=O)c2sc(N)nc2C)cc1
- TGI (786-0 renal): > 100 µM
- TGI (A498 renal): > 100 µM
- TGI (HL-60(TB) leukemia): > 100 µM
- TGI (IGROV1 ovarian): > 100 µM
- TGI (K-562 leukemia): > 100 µM
- TGI (MOLT-4 leukemia): > 100 µM
- TGI (SF-268 CNS): > 100 µM
- TGI (SK-OV-3 ovarian): > 100 µM
- TGI (SW-620 colon): > 100 µM

Compound: Nc1nnc2nc(CC(=O)/C=C/c3ccccc3)c(=O)[nH]n12
- TGI (786-0 renal): > 100 µM
- TGI (A498 renal): > 100 µM
- TGI (HL-60(TB) leukemia): > 100 µM
- TGI (IGROV1 ovarian): > 100 µM
- TGI (K-562 leukemia): > 100 µM
- TGI (MOLT-4 leukemia): > 100 µM
- TGI (SF-268 CNS): > 100 µM
- TGI (SK-OV-3 ovarian): > 100 µM
- TGI (SW-620 colon): > 100 µM

Reference: PubChem BioAssay (NCI)
